Activity calls are given as the source filed them.
How the values were obtained:
Coagulation factor XII [1] = molecular target: T1, Coagulation factor XII (Homo sapiens, UniProt P00748); format: functional;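 further: activated factor XIIa alpha cleaving a fluorogenic AMC peptide substrate; inhibitor potency from loss of enzyme activity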
T1 sequence (P00748 whole entry): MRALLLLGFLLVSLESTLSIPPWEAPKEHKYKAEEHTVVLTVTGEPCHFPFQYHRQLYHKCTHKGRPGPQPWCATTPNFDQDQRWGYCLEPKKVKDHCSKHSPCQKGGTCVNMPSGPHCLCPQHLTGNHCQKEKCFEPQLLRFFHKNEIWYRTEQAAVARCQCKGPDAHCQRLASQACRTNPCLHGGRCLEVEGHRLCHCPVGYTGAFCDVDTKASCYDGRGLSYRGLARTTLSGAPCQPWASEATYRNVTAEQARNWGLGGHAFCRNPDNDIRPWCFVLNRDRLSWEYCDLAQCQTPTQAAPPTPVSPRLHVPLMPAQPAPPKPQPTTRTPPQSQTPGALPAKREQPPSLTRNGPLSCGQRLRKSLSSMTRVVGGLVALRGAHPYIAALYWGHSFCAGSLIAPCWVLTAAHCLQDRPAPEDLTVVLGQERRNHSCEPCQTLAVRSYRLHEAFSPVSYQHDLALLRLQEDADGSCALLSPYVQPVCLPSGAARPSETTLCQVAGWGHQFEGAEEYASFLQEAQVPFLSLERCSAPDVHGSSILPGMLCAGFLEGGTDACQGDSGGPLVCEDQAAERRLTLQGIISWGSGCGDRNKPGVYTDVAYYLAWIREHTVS

Coagulation factor XII [2] = molecular target: T1, Coagulation factor XII; experiment: FXIIa inhibitor potency, concentration-response, biochemical (AID 716); format: functional
[3] = molecular target: T2, Sphingosine 1-phosphate receptor 4 (Homo sapiens, UniProt O95977); experiment: Late-stage fluorescence dose response cell-based assay to identify agonists of the Sphingosine 1-Phosphate Receptor 4 (S1P4): purchased compounds EC50. [Related pubchem assays (depositor defined):AID1509, AID1523, AID1563, AID1686, AID1701, AID1801]; format: functional
T2 sequence (O95977 whole entry): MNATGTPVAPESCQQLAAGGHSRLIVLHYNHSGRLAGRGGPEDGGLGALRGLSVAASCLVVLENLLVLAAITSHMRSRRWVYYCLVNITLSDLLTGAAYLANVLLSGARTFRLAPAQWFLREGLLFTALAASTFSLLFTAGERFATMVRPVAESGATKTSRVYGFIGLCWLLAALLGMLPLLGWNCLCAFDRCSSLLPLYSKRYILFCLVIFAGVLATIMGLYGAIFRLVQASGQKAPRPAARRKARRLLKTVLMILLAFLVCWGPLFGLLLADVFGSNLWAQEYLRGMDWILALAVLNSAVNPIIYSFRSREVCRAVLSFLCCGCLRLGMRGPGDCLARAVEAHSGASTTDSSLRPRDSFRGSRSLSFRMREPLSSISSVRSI

cells = format: functional
[4] = Vero E6 cell cytotoxicity, dose response, cytotoxicity control for non-replicating M. tuberculosis project, secondary assay (AID 492998); format: functional, VeroE6; conditions: Vero C1008
[5] = HepG2 cell cytotoxicity, dose response, cytotoxicity control for non-replicating M. tuberculosis project (AID 489018); format: functional; conditions: Mycobacterium tuberculosis
[6] = molecular target: T3, C-C chemokine receptor type 6 (Homo sapiens, UniProt P51684); experiment: CCR6 receptor antagonists, dose response, cell-based, luminescent beta-arrestin readout (AID 504728); format: functional
T3 sequence (P51684 whole entry): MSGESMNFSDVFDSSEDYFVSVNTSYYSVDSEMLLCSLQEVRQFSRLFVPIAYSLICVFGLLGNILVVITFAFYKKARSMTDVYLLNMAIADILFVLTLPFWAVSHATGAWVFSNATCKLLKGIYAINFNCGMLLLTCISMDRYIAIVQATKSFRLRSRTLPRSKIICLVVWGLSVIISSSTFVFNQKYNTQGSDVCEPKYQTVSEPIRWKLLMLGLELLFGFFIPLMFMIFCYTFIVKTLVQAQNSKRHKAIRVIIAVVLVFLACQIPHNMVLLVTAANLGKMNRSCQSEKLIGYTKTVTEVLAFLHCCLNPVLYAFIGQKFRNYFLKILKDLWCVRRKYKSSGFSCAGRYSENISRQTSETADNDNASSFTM

[7] = THP-1 cell cytotoxicity, dose response, cytotoxicity control for non-replicating M. tuberculosis project (AID 489025); format: functional
INS1 = experiment: beta cell apoptosis inhibitors, cytokine rescue, dose response, luminescence, retest (AID 449756); format: functional, cell-based; conditions: Rattus norvegicus;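 further: cell death triggered by IL-1 beta plus TNF-alpha plus IFN-gamma mixture; protective hits raise ATP signal compared with cytokine alone wells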
Beta-galactosidase = Beta-galactosidase (Escherichia coli, UniProt Q8VNN2); experiment: beta-galactosidase enzyme inhibitors and activators, dose response, artefact control for CCR6 antagonist project, biochemical, E. coli enzyme, set 3 (AID 504712); format: functional
Beta-galactosidase, sequence (Q8VNN2 whole entry): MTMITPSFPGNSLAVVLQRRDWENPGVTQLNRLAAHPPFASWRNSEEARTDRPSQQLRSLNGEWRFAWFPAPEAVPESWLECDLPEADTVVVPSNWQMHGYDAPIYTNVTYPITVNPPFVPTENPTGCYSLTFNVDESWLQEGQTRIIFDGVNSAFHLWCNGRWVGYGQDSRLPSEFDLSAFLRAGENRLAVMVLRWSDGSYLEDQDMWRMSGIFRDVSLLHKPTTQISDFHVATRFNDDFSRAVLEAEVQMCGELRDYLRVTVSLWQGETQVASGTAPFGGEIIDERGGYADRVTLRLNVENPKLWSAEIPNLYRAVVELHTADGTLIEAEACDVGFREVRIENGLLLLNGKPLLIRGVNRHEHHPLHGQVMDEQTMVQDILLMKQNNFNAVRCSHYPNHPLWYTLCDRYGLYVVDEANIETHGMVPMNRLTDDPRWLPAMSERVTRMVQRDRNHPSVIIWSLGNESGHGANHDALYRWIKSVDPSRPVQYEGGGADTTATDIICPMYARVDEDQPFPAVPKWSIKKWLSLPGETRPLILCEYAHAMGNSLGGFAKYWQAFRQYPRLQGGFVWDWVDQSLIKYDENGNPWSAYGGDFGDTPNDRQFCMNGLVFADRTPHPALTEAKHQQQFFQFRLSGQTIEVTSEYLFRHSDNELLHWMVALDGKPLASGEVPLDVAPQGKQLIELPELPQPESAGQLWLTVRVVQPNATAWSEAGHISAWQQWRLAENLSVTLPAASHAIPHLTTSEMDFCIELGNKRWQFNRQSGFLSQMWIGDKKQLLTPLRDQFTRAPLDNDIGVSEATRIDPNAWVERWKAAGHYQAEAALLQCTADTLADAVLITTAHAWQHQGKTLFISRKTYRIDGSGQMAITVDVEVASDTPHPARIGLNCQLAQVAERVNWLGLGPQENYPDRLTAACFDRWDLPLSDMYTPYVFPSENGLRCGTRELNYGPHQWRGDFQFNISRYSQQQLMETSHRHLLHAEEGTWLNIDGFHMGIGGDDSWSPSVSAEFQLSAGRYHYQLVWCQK

[8] = molecular target: T4, Short transient receptor potential channel 4 (Mus musculus, UniProt Q9QUQ5); experiment: TRPC4 positive allosteric modulators, dose response, cell-based, HEK293 TRPC4/mu-opioid, Fluo-4 calcium, EC20 DAMGO (AID 434941); format: functional
T4 sequence (Q9QUQ5 whole entry): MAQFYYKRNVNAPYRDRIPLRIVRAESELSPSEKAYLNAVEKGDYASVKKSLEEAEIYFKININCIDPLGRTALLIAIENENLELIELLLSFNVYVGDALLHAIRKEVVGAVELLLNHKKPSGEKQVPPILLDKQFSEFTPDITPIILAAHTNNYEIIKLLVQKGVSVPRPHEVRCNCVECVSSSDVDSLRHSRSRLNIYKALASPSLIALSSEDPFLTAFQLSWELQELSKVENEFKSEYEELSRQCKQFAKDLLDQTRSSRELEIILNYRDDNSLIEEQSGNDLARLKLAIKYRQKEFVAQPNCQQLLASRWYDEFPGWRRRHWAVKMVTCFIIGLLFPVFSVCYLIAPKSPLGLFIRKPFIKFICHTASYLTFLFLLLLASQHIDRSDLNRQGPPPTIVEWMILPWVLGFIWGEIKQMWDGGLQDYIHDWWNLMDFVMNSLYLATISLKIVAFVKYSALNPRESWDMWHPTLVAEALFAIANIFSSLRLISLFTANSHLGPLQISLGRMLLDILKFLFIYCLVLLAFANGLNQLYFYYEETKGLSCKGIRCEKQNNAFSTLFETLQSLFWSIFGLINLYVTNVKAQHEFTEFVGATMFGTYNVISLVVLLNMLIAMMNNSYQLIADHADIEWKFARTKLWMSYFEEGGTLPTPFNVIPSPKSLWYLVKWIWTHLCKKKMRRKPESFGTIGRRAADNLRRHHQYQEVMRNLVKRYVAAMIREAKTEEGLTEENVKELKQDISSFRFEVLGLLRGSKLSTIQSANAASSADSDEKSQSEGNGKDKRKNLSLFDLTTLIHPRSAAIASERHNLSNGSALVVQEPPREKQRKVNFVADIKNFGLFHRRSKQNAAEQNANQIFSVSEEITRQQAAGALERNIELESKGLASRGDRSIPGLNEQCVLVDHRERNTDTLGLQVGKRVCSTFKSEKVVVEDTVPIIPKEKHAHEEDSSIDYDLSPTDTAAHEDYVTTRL

Cytochrome P450 2C9 = Cytochrome P450 2C9 (Homo sapiens, UniProt P11712)
Cytochrome P450 2C9, sequence (P11712 whole entry): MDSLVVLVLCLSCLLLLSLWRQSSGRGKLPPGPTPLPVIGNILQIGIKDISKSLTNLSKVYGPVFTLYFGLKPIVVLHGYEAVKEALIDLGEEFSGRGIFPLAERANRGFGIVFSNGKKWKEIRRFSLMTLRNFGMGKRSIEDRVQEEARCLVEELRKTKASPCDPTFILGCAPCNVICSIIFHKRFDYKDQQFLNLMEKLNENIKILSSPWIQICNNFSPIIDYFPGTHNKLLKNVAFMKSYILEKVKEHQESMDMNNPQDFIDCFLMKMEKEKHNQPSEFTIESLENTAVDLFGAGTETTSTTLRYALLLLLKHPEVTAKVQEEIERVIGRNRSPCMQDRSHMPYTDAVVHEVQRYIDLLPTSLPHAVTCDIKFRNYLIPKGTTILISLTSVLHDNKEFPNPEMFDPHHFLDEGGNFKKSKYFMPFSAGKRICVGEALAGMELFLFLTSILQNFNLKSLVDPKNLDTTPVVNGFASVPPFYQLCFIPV

Cytochrome P450 2D6 = Cytochrome P450 2D6 (Homo sapiens, UniProt P10635);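 further: CYP2D6 member of a cytochrome P450 panel assay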
Cytochrome P450 2D6, sequence (P10635 whole entry): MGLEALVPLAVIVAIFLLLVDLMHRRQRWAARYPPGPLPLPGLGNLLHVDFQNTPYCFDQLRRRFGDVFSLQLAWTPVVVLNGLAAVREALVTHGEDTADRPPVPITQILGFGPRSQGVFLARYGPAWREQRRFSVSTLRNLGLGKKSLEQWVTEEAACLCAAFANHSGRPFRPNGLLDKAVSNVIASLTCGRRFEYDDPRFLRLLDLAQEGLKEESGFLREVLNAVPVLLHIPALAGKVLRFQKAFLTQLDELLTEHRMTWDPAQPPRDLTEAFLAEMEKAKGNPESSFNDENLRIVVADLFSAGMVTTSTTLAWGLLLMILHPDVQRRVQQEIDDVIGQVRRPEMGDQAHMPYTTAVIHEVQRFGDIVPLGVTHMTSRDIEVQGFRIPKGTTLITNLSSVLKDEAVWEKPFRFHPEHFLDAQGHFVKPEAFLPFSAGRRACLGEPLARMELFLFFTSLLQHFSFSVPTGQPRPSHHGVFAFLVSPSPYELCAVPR

For CC(=O)N1CCc2c(sc(NC(=O)C3CC3)c2-c2nc3ccccc3s2)C1, the IC50 (Coagulation factor XII [1]) was 25.7 µM (active).

For Cc1cc(N2CCCC2=O)cc(C)c1S(=O)(=O)NCCOc1ccccc1, the IC50 (Coagulation factor XII [2]) was > 50 µM (inactive).

In the case of Cc1nn(CC(C)C)c(Cl)c1C(=O)OC(C)C(=O)Nc1ccccc1 (centres undefined), the EC50 [3] is reported as > 50 µM (inactive).

With Cc1cc(N/N=C/c2ccc(F)cc2)nc(-n2nc(C)cc2C)n1 the IC50 (cells) was < 0.1 µM (active), the CC50 [4] was 15.6 µM (active) and the CC50 [5] was > 20 µM (active). For the same compound, the IC50 [6] was > 66.6 µM (inactive), the CC50 [7] was 10.8 µM (active) and the AC50 (INS1) was 2.81 µM (active). For the same compound, the IC50 (Beta-galactosidase) was > 66.6 µM (inactive).

With Cc1ccc(/C=N/NC(=O)NC2CCCCC2)o1 the EC50 [8] was 3.35 µM (active).

For COc1ccc2[nH]cc(CCN(C)C)c2c1 [MEBUFOTENIN], the AC50 (Cytochrome P450 2C9) was “inconclusive”, the EC50 [8] was 0.67 µM (active) and the AC50 (Cytochrome P450 2D6) was 20 µM (inconclusive).

— ChEMBL document CHEMBL1201862, “PubChem BioAssay data set” (2004)
